Data from the NIST ThermoML archive (doi:10.1021/acs.jced.5b01000).
Numbers after ± are expanded uncertainties.

What was measured:
[1] = refractive index (Na D-line) (dimensionless); details: 99 kPa, Liquid, Standard Abbe refractometry
[2] = 99 kPa, Liquid; for viscosity: Capillary tube (Ostwald / Ubbelohde) method; for speed of sound: Frequency=3 MHz, Sing-around technique in a fixed-path interferometer; for mass density: Vibrating tube method
[3] = xn = mol fraction of the nth substance listed; details: 99 kPa, Liquid, x2 = 0; for viscosity: Capillary tube (Ostwald / Ubbelohde) method; for speed of sound: Frequency=3 MHz, Sing-around technique in a fixed-path interferometer; for mass density: Vibrating tube method
[4] = refractive index (Na D-line) (dimensionless); xn = mol fraction of the nth substance listed; details: 99 kPa, Liquid, Standard Abbe refractometry, x2 = 0

With `CC(=O)N(C)C` [N,N-dimethylethanamide] the refractive index ([1]; 283.15 K) was 1.44273 ± 0.00036, the refractive index ([1]; 298.15 K) was 1.43579 ± 0.00036 and the refractive index ([1]; 313.15 K) was 1.42901 ± 0.00036. For the same compound, the viscosity ([2]; 283.15 K) was 1.168 ± 0.014 mPa·s, the speed of sound ([2]; 283.15 K) was 1516.8 ± 1.3 m/s and the mass density ([2]; 283.15 K) was 950.131 ± 0.21 kg/m3. The viscosity ([2]; 298.15 K) was 0.9299 ± 0.011 mPa·s, the speed of sound ([2]; 298.15 K) was 1453.7 ± 1.3 m/s and the mass density ([2]; 298.15 K) was 936.289 ± 0.21 kg/m3. It also gave a viscosity ([2]; 313.15 K) of 0.7644 ± 0.0091 mPa·s, a speed of sound ([2]; 313.15 K) of 1393.3 ± 1.3 m/s and a mass density ([2]; 313.15 K) of 922.429 ± 0.21 kg/m3.
Compound `CCO` [ethanol] has a refractive index ([1]; 283.15 K) of 1.36529 ± 0.00035, a refractive index ([1]; 298.15 K) of 1.35913 ± 0.00035 and a refractive index ([1]; 313.15 K) of 1.35275 ± 0.00035. It also gave a viscosity ([2]; 283.15 K) of 1.444 ± 0.017 mPa·s, a speed of sound ([2]; 283.15 K) of 1194.5 ± 1.2 m/s and a mass density ([2]; 283.15 K) of 797.878 ± 0.19 kg/m3. The viscosity ([2]; 298.15 K) was 1.079 ± 0.012 mPa·s, the speed of sound ([2]; 298.15 K) was 1143.2 ± 1.2 m/s and the mass density ([2]; 298.15 K) was 785.054 ± 0.19 kg/m3. It also gave a viscosity ([2]; 313.15 K) of 0.8235 ± 0.0096 mPa·s, a speed of sound ([2]; 313.15 K) of 1092.4 ± 1.1 m/s and a mass density ([2]; 313.15 K) of 772.5 ± 0.19 kg/m3.
In the case of `CCO` [ethanol] + CC(=O)N(C)C, the viscosity ([3]; 283.15 K) is reported as 1.444 ± 0.017 mPa·s, the speed of sound ([3]; 283.15 K) is reported as 1194.5 ± 1.2 m/s and the mass density ([3]; 283.15 K) is reported as 797.878 ± 0.19 kg/m3. For the same compound, the viscosity ([3]; 298.15 K) was 1.079 ± 0.012 mPa·s, the speed of sound ([3]; 298.15 K) was 1143.2 ± 1.2 m/s and the mass density ([3]; 298.15 K) was 785.054 ± 0.19 kg/m3. The viscosity ([3]; 313.15 K) was 0.8235 ± 0.0096 mPa·s, the speed of sound ([3]; 313.15 K) was 1092.4 ± 1.1 m/s and the mass density ([3]; 313.15 K) was 772.5 ± 0.19 kg/m3. It also gave a refractive index ([4]; 283.15 K) of 1.36529 ± 0.00035, a refractive index ([4]; 298.15 K) of 1.35913 ± 0.00035 and a refractive index ([4]; 313.15 K) of 1.35275 ± 0.00035.
For `CO` [methanol], the refractive index ([1]; 283.15 K) was 1.33282 ± 0.00035, the refractive index ([1]; 298.15 K) was 1.32636 ± 0.00035 and the refractive index ([1]; 313.15 K) was 1.32013 ± 0.00035. For the same compound, the viscosity ([2]; 283.15 K) was 0.677 ± 0.0079 mPa·s, the speed of sound ([2]; 283.15 K) was 1152.7 ± 1.2 m/s and the mass density ([2]; 283.15 K) was 800.707 ± 0.19 kg/m3. It also gave a viscosity ([2]; 298.15 K) of 0.5449 ± 0.0064 mPa·s, a speed of sound ([2]; 298.15 K) of 1104.2 ± 1.1 m/s and a mass density ([2]; 298.15 K) of 786.611 ± 0.19 kg/m3. The viscosity ([2]; 313.15 K) was 0.4441 ± 0.0053 mPa·s, the speed of sound ([2]; 313.15 K) was 1054.5 ± 1.1 m/s and the mass density ([2]; 313.15 K) was 772.31 ± 0.19 kg/m3.
`CO` [methanol] + CC(=O)N(C)C showed a viscosity ([3]; 283.15 K) of 0.677 ± 0.0079 mPa·s, a speed of sound ([3]; 283.15 K) of 1152.7 ± 1.2 m/s and a mass density ([3]; 283.15 K) of 800.707 ± 0.19 kg/m3. It also gave a viscosity ([3]; 298.15 K) of 0.5449 ± 0.0064 mPa·s, a speed of sound ([3]; 298.15 K) of 1104.2 ± 1.1 m/s and a mass density ([3]; 298.15 K) of 786.611 ± 0.19 kg/m3. The viscosity ([3]; 313.15 K) was 0.4441 ± 0.0053 mPa·s, the speed of sound ([3]; 313.15 K) was 1054.5 ± 1.1 m/s and the mass density ([3]; 313.15 K) was 772.31 ± 0.19 kg/m3. It also gave a refractive index ([4]; 283.15 K) of 1.33282 ± 0.00035, a refractive index ([4]; 298.15 K) of 1.32636 ± 0.00035 and a refractive index ([4]; 313.15 K) of 1.32013 ± 0.00035.
